Data taken from patent US20080200454A1, “CARBON-LINKED TETRAHYDRO-PYRAZOLO-PYRIDINE MODULATORS OF CATHEPSIN S” (priority 2007, published 2008).

biological target: Recombinant human cathepsin S (CatS) (Homo sapiens, UniProt P25774); experiment: Recombinant human cathepsin S (CatS) inhibition assay, fluorogenic substrate Z-Valine-Valine-Arginine-AMC; details: not given;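 note: Baculovirus-expressed CatS in pH 5.0 sodium acetate buffer with DTT and NaCl, fluorescence read each minute over 20 min, inhibition derived from rate slope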
Sequence (P25774 115-331): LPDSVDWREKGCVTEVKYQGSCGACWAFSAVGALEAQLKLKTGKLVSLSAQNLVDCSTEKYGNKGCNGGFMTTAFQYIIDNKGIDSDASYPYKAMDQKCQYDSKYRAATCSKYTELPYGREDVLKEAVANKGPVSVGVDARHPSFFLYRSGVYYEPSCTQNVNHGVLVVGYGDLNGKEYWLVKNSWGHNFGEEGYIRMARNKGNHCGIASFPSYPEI

Compared with CC(C)(C)OC(=O)N1CCC(C2CCN(C[C@H](O)Cn3nc(-c4ccc(Cl)c(C#Cc5ccc(Cl)cc5)c4)c4c3CCN(C(N)=O)C4)CC2)CC1 [Example 237, 1,1-Dimethylethyl 1′-{(2S)-3-[5-(aminocarbonyl)-3-{4-chloro-3-[(4-chlorophenyl)ethynyl]phenyl}-4,5,6,7-tetrahydro-1H-pyrazolo[4,3-c]pyridin-1-yl]-2-hydroxypropyl}-4,4′-bipiperidine-1-carboxylate], COC(=O)C(=O)N1CCc2c(c(-c3ccc(Cl)c(C#Cc4ccc(Cl)cc4)c3)nn2CCCN2CCOCC2)C1 [Example 136, [3-[4-Chloro-3-(4-chloro-phenylethynyl)-phenyl]-1-(3-morpholin-4-yl-propyl)-1,4,6,7-tetrahydro-pyrazolo[4,3-c]pyridin-5-yl]-oxo-acetic acid methyl ester] is 5-fold higher in IC50: 10 nM for the first, 50 nM for the second.

Going from CN(C)c1ccc2c(n1)n(C1CCN(CC(O)Cn3nc(-c4ccc(Cl)c(C#Cc5ccc(Cl)cc5)c4)c4c3CCN(S(C)(=O)=O)C4)CC1)c(=O)n2C (stereo not shown) [Example 126, 3-[1-(3-{3-[4-Chloro-3-(4-chloro-phenylethynyl)-phenyl]-5-methanesulfonyl-4,5,6,7-tetrahydro-pyrazolo[4,3-c]pyridin-1-yl}-2-hydroxy-propyl)-piperidin-4-yl]-5-dimethylamino-1-methyl-1,3-dihydro-imidazo[4,5-b]pyridin-2-one] to CC(C)(C)OC(=O)N1C[C@H]2C[C@@H]1CN2CCCn1nc(-c2ccc(Cl)c(C#Cc3ccc(CNCc4ccc(Cl)cc4)cc3)c2)c2c1CCN(S(C)(=O)=O)C2 [Example 492, 1,1-Dimethylethyl (1R,4R)-5-{3-[3-(4-chloro-3-{[4-({[(4-chlorophenyl)methyl]amino}methyl)phenyl]ethynyl}phenyl)-5-(methylsulfonyl)-4,5,6,7-tetrahydro-1H-pyrazolo[4,3-c]pyridin-1-yl]propyl}-2,5-diazabicyclo[2.2.1]heptane-2-carboxylate], the IC50 rises from 10 nM to 220 nM (22-fold).

Going from CS(=O)(=O)N1CCc2c(c(-c3ccc(Cl)c(CCCN)c3)nn2CCCN2CCC(N3CCCC3=O)CC2)C1 [Example 308, 1-[1-(3-{3-[3-(3-Aminopropyl)-4-chlorophenyl]-5-(methylsulfonyl)-4,5,6,7-tetrahydro-1H-pyrazolo[4,3-c]pyridin-1-yl}propyl)piperidin-4-yl]pyrrolidin-2-one] to CS(=O)(=O)N1CCc2c(c(-c3ccc(Cl)c(C#Cc4nnc5n4CCNC5)c3)nn2CCCN2CCOCC2)C1 [Example 403, 3-({2-Chloro-5-[5-(methylsulfonyl)-1-(3-morpholin-4-ylpropyl)-4,5,6,7-tetrahydro-1H-pyrazolo[4,3-c]pyridin-3-yl]phenyl}ethynyl)-5,6,7,8-tetrahydro[1,2,4]triazolo[4,3-a]pyrazine], the IC50 rises from 5650 nM to 8520 nM (1.5-fold).

First: CC(C)(C)OC(=O)NCc1ccccc1C#Cc1cc(-c2nn(CCCN3CCOCC3)c3c2CN(S(C)(=O)=O)CC3)ccc1Cl [Example 384, 1,1-Dimethylethyl {[2-({2-chloro-5-[5-(methylsulfonyl)-1-(3-morpholin-4-ylpropyl)-4,5,6,7-tetrahydro-1H-pyrazolo[4,3-c]pyridin-3-yl]phenyl}ethynyl)phenyl]methyl}carbamate]
Second: COC(=O)C1Cc2cc(C#Cc3cc(-c4nn(CCCN5CCOCC5)c5c4CN(S(C)(=O)=O)CC5)ccc3Cl)ccc2CN1C(=O)OC(C)(C)C (stereo not shown) [Example 203, 2-(1,1-Dimethylethyl) 3-methyl 6-({2-chloro-5-[5-(methylsulfonyl)-1-(3-morpholin-4-ylpropyl)-4,5,6,7-tetrahydro-1H-pyrazolo[4,3-c]pyridin-3-yl]phenyl}ethynyl)-3,4-dihydroisoquinoline-2,3(1H)-dicarboxylate]
The IC50 of the first is 4.9-fold higher: 2790 nM for the first, 570 nM for the second.

same assay, conditions: CatS IC50

Compared with C[C@H]1COCCN1CCCn1nc(-c2ccc(Cl)c(CCc3ccc(CNCc4ccc(Cl)cc4)cc3)c2)c2c1CCN(C(N)=O)C2 [Example 244, 3-(4-Chloro-3-{2-[4-({[(4-chlorophenyl)methyl]amino}methyl)phenyl]ethyl}phenyl)-1-{3-[(3S)-3-methylmorpholin-4-yl]propyl}-1,4,6,7-tetrahydro-5H-pyrazolo[4,3-c]pyridine-5-carboxamide], C[C@H]1COCCN1CCCn1nc(-c2ccc(Cl)c(C#Cc3ccc(CN(C)Cc4ccc(Cl)cc4)cc3)c2)c2c1CCN(S(C)(=O)=O)C2 [Example 500, 1-[4-({2-Chloro-5-[1-{3-[(3S)-3-methylmorpholin-4-yl]propyl}-5-(methylsulfonyl)-4,5,6,7-tetrahydro-1H-pyrazolo[4,3-c]pyridin-3-yl]phenyl}ethynyl)phenyl]-N-[(4-chlorophenyl)methyl]-N-methylmethanamine] is 9.7-fold higher in IC50: 60 nM for the first, 580 nM for the second.

First: CC(C)(C)OC(=O)N1Cc2ccc(C#Cc3cc(-c4nn(CCCN5CCOCC5)c5c4CN(S(C)(=O)=O)CC5)ccc3Cl)cc2C1 [Example 392, 1,1-Dimethylethyl 5-({2-chloro-5-[5-(methylsulfonyl)-1-(3-morpholin-4-ylpropyl)-4,5,6,7-tetrahydro-1H-pyrazolo[4,3-c]pyridin-3-yl]phenyl}ethynyl)-1,3-dihydro-2H-isoindole-2-carboxylate]
Second: C[C@H]1COCCN1CCCn1nc(-c2ccc(Cl)c(C#Cc3ccc4c(c3)CCN(C)C4)c2)c2c1CCN(S(C)(=O)=O)C2 [Example 519, 6-({2-Chloro-5-[1-{3-[(3S)-3-methylmorpholin-4-yl]propyl}-5-(methylsulfonyl)-4,5,6,7-tetrahydro-1H-pyrazolo[4,3-c]pyridin-3-yl]phenyl}ethynyl)-2-methyl-1,2,3,4-tetrahydroisoquinoline]
The IC50 of the first is 2.2-fold lower: 180 nM for the first, 400 nM for the second. The first is the more potent here.

First: O=C(C1CCCO1)N1CCc2c(c(-c3ccc(Cl)c(C#Cc4ccc(Cl)cc4)c3)nn2CCCN2CCOCC2)C1 (stereo not shown) [Example 141, [3-[4-Chloro-3-(4-chloro-phenylethynyl)-phenyl]-1-(3-morpholin-4-yl-propyl)-1,4,6,7-tetrahydro-pyrazolo[4,3-c]pyridin-5-yl]-(tetrahydro-furan-2-yl)-methanone]
Second: CS(=O)(=O)N1CCc2c(c(-c3ccc(Cl)c(C#Cc4ccc(-c5nc6ccccc6[nH]5)cc4)c3)nn2CCCN2CCOCC2)C1 [Example 320, 3-(3-{[4-(1H-Benzimidazol-2-yl)phenyl]ethynyl}-4-chlorophenyl)-5-(methylsulfonyl)-1-(3-morpholin-4-ylpropyl)-4,5,6,7-tetrahydro-1H-pyrazolo[4,3-c]pyridine]
The IC50 of the first is 3.4-fold higher: 310 nM for the first, 90 nM for the second. The second is the more potent here.

Going from COc1ccc(CNCc2ccc(C#Cc3cc(-c4nn(CCCN5CCSCC5)c5c4CN(C(N)=O)CC5)ccc3Cl)cc2)cc1 [Example 538, 3-[4-Chloro-3-({4-[({[4-(methyloxy)phenyl]methyl}amino)methyl]phenyl}ethynyl)phenyl]-1-(3-thiomorpholin-4-ylpropyl)-1,4,6,7-tetrahydro-5H-pyrazolo[4,3-c]pyridine-5-carboxamide] to CN(Cc1ccc(Cl)cc1)Cc1ccc(C#Cc2cc(-c3nn(CCCN4CCSCC4)c4c3CN(S(C)(=O)=O)CC4)ccc2Cl)cc1 [Example 503, 1-[4-({2-Chloro-5-[5-(methylsulfonyl)-1-(3-thiomorpholin-4-ylpropyl)-4,5,6,7-tetrahydro-1H-pyrazolo[4,3-c]pyridin-3-yl]phenyl}ethynyl)phenyl]-N-[(4-chlorophenyl)methyl]-N-methylmethanamine], the IC50 rises from 110 nM to 660 nM (6-fold).
